According to ChEMBL document CHEMBL1122939, “N6-cycloalkyladenosines. Potent, A1-selective adenosine agonists” (J Med Chem, 1985):

Legend:
Adenosine receptor A1 = molecular target: T1, Adenosine receptor A1 (Rattus norvegicus, UniProt P25099)
T1 sequence (P25099 whole entry): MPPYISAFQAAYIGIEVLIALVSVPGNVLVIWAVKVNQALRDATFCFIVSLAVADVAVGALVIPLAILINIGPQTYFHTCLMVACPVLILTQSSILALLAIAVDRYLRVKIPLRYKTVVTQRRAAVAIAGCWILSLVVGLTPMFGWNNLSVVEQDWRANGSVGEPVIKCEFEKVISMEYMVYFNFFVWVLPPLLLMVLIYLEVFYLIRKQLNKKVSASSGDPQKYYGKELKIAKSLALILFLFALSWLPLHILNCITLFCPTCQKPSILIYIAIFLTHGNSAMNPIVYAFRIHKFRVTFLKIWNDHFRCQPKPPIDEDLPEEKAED

Adenosine A2 receptor = Adenosine A2 receptor (Rattus norvegicus, UniProt P29276+P30543)
Description: Displacement of [3H]-NECA from adenosine A2 receptor of rat striatal membrane

[1] = Lipophilicity value was evaluated; type: physicochemical; conditions: octanol/water

Row | SMILES | Ki (Adenosine receptor A1) | Ki (Adenosine A2 receptor) | Log k [1]
1 | OC[C@H]1O[C@@H](n2cnc3c(NC4CCCCCC4)ncnc32)[C@H](O)[C@@H]1O | 2.79 nM | 1690 nM | 2.4
2 | OC[C@H]1OC(n2cnc3c(NC4CCCCCCCCC4)ncnc32)[C@H](O)[C@@H]1O (some centres undefined) | 100 nM | 5190 nM | 3.62
3 | OC[C@H]1OC(n2cnc3c(NC4CCCCCCCCCCC4)ncnc32)[C@H](O)[C@@H]1O (some centres undefined) | 5390 nM | 47700 nM | 4.52
4 | OC[C@H]1O[C@@H](n2cnc3c(NC4CCCCC4)ncnc32)[C@H](O)[C@@H]1O | – | – | 1.6
5 | OC[C@H]1O[C@@H](n2cnc3c(NC4CCCCCCC4)ncnc32)[C@H](O)[C@@H]1O | 4.03 nM | 2450 nM | 2.9

Other lines, results leading:

Row | Ki (Adenosine receptor A1) | Ki (Adenosine A2 receptor) | Log k [1] | SMILES
6 | 144 nM | 3250 nM | – | Cn1c(=O)[nH]c2c(ncn2C2O[C@H](CO)[C@@H](O)[C@H]2O)c1=N (some centres undefined)
7 | 8.74 nM | – | – | Nc1nc(Cl)nc2c1ncn2[C@@H]1O[C@H](CO)[C@@H](O)[C@H]1O
8 | – | 462 nM | 1.56 | OC[C@H]1O[C@@H](n2cnc3c(NC4CCCC4)ncnc32)[C@H](O)[C@@H]1O [N6-CYCLOPENTYLADENOSINE]
9 | 319 nM | 1240 nM | 0.53 | OC[C@H]1O[C@@H](n2cnc3c(NC4CC4)ncnc32)[C@H](O)[C@@H]1O
10 | 0.777 nM | 263 nM | 1.22 | OC[C@H]1O[C@@H](n2cnc3c(NC4CCC4)ncnc32)[C@H](O)[C@@H]1O
